Measurements published in ChEMBL document CHEMBL3132769, “Fragment growing to retain or alter the selectivity of anchored kinase hinge-binding fragments” (Medchemcomm, 2014).

Legend:
[1] = biological target: T1, Serine/threonine-protein kinase Sgk1 (Homo sapiens) (UniProt O00141); experiment: Inhibition of human truncated SGK1 expressed in baculovirus assessed as substrate phosphorylation using fluorescence-labelled peptides as substrate at 0.06 uM after 90 mins by microfluidic peptide phosphorylation assay
T1 sequence (whole entry): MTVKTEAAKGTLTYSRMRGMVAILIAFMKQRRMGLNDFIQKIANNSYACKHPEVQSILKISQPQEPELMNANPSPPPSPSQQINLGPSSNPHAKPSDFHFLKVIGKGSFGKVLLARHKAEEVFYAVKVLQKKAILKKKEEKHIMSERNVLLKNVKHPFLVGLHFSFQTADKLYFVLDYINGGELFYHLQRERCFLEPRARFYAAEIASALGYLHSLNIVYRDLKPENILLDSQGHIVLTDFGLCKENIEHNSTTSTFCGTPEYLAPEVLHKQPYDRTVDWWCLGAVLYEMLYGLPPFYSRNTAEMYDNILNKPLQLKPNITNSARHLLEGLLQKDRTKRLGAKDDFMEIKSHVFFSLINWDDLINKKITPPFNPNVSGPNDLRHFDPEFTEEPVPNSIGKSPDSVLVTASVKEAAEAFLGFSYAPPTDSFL

[2] = biological target: T2, Inhibitor of nuclear factor kappa-B kinase subunit beta (Homo sapiens) (UniProt O14920); experiment: Inhibition of human full length IKK beta expressed in baculovirus assessed as substrate phosphorylation using fluorescence-labelled peptides as substrate at 0.06 uM after 90 mins by microfluidic peptide phosphorylation assay
T2 sequence (whole entry): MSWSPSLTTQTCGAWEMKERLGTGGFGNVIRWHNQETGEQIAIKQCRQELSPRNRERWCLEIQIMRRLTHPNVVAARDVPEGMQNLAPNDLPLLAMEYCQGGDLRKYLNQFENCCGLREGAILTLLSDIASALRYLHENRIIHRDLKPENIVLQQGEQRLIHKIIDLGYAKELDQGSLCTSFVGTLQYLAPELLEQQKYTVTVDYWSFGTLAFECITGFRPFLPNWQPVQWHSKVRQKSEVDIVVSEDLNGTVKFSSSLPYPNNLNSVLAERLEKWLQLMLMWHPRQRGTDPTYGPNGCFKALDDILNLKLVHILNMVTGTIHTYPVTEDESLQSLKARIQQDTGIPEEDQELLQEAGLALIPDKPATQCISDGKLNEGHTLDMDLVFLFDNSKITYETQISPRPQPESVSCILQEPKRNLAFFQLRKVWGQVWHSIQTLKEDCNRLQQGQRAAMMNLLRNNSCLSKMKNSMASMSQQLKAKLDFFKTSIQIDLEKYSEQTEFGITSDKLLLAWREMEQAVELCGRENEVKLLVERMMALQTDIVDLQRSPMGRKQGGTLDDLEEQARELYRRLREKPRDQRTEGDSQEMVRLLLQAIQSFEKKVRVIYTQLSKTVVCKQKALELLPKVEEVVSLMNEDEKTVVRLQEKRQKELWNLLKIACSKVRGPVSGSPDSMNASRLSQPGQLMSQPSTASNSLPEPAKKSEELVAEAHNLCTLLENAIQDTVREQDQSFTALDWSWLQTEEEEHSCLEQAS

[3] = biological target: T3, Interleukin-1 receptor-associated kinase 4 (Homo sapiens) (UniProt Q9NWZ3); experiment: Inhibition of human IRAK4 catalytic domain expressed in baculovirus assessed as substrate phosphorylation using fluorescence-labelled peptides as substrate at 0.2 uM after 90 mins by microfluidic peptide phosphorylation assay
T3 sequence (whole entry): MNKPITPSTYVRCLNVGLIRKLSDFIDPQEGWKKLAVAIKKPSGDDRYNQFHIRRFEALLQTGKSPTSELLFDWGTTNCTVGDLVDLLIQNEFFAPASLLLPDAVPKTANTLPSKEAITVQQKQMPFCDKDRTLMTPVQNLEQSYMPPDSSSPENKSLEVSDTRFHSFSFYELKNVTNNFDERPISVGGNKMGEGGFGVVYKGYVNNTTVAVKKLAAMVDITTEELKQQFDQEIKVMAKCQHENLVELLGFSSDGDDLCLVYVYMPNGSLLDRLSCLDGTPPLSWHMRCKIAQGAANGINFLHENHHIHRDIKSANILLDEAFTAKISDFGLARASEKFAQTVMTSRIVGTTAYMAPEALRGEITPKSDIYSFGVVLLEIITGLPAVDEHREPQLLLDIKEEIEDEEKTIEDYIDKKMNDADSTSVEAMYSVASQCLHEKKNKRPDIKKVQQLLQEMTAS

[4] = biological target: Tyrosine-protein kinase HCK (Homo sapiens) (UniProt P08631); experiment: Inhibition of human HCK catalytic domain expressed in baculovirus assessed as substrate phosphorylation using fluorescence-labelled peptides as substrate at 9 uM after 90 mins by microfluidic peptide phosphorylation assay
Chain of Tyrosine-protein kinase HCK (Homo sapiens) (P08631 2-526 limits assumed): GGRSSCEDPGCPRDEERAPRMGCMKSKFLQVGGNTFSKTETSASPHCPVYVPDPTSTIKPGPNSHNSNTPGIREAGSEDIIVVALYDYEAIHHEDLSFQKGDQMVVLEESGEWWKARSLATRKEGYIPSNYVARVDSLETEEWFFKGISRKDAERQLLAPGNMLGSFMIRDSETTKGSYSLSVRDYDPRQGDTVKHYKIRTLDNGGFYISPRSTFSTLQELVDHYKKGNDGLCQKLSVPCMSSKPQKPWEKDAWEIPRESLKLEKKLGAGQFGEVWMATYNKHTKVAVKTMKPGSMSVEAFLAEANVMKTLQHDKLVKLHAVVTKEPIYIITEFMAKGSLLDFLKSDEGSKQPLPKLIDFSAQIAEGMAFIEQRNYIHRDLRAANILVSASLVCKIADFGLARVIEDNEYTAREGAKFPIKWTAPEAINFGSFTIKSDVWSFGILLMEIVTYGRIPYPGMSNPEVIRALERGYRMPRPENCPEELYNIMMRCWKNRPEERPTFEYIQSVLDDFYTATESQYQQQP

[5] = biological target: Fibroblast growth factor receptor 3 (Homo sapiens) (UniProt P22607); experiment: Inhibition of human FGFR3 catalytic domain expressed in baculovirus assessed as substrate phosphorylation using fluorescence-labelled peptides as substrate at 0.1 uM after 90 mins by microfluidic peptide phosphorylation assay
Chain of Fibroblast growth factor receptor 3 (Homo sapiens) (P22607 23-806 limits assumed): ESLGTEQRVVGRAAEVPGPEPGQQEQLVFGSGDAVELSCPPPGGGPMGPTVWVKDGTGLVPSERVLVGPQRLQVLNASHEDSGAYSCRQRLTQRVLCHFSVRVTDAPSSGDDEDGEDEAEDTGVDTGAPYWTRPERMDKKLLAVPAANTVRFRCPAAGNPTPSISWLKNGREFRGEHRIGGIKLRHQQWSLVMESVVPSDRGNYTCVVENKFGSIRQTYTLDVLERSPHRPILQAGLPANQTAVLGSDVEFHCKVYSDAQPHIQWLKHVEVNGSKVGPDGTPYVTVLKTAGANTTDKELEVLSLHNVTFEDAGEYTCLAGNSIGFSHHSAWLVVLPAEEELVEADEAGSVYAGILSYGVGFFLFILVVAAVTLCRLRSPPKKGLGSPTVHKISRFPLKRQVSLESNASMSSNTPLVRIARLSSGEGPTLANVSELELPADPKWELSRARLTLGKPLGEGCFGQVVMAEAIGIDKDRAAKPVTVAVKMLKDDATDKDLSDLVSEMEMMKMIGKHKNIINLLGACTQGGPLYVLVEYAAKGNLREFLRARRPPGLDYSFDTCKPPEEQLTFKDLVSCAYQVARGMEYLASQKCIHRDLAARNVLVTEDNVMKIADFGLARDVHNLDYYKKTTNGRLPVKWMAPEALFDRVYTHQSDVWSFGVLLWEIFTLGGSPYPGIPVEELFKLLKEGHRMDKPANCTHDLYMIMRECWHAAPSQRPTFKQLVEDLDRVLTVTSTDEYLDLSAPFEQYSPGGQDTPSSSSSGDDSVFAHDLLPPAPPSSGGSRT

[6] = biological target: Insulin-like growth factor 1 receptor (Homo sapiens) (UniProt P08069); experiment: Inhibition of human IGF1R catalytic domain expressed in baculovirus assessed as substrate phosphorylation using fluorescence-labelled peptides as substrate at 95 uM after 90 mins by microfluidic peptide phosphorylation assay

Which inhibition [1] does the source give for `NC1(Cc2ccc(Cl)cc2)CCN(c2ncnc3[nH]ccc23)CC1` here?
Its inhibition is 56%.

What about the inhibition [2] of the same compound?
Its inhibition is 2%.

`Clc1ccc(C2(c3ccc(-c4ncnc5[nH]cnc45)cc3)CCNCC2)cc1` was tested. Which inhibition [3] did it give?
The inhibition was 13%.

`NCC1CN(c2ncnc3[nH]c4cnccc4c23)CCO1` (stereo unspecified) was tested. Which inhibition [4] did it give?
The inhibition was 29%.

How did the inhibition [5] turn out when `C[C@H](CN(C)C)Oc1nc(Nc2cc3cccc(Cl)c3cn2)cnc1C#N` was run?
Its inhibition is 5.5%.

For `NCCc1ccc(-c2ncnc3[nH]cnc23)cc1`, which inhibition [6] is on record?
Its inhibition is 20.5%.
